Here are results for 16 compounds from PubChem BioAssay (NCI).

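Assay format: 96-well plates, 48-hour exposure. TGI is the concentration that stops growth completely.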 Some results are limits rather than exact numbers.

Holding throughout (assay): NCI anticancer screen, dose series, 48 h
For experiment [1], the system named is SK-MEL-5 melanoma.
In experiment [2] the test system is PC-3 prostate.
Experiment [3] concerns MDA-MB-435.
For experiment [4], the system named is K-562 leukemia.
The test system of experiment [5] is NCI-H226 lung.
The subject of experiment [6] is HOP-62 NSCLC.
For experiment [7], the system named is OVCAR-8 ovarian.
Experiment [8] relates to SR leukemia.
Experiment [9] concerns A498 renal.
In experiment [10] the test system is SNB-75 CNS.
Experiment [11] deals with MCF7 breast.
In experiment [12] the test system is SF-268 CNS.
For experiment [13], the system named is SK-OV-3 ovarian.
Experiment [14] concerns MOLT-4 leukemia.
The subject of experiment [15] is COLO 205 colon.
Experiment [16] has as its system HS 578T breast.
The subject of experiment [17] is UACC-62 melanoma.

For the compound `CCOC(=O)C(NNS(=O)(=O)c1ccc(C)cc1)S(=O)(=O)C(F)(F)C(F)(F)C(F)(F)C(F)(F)F` (stereo not given), the TGI in experiment [1], in experiment [2], in experiment [3], in experiment [4], in [5] and in experiment [6] was over 100 µM in each case. Further, the TGI in [7], in [8], in [9], in [10], in [11] and in experiment [12] was over 100 µM in each case. The TGI in experiment [13], in [14], in experiment [15], in [16] and in [17] was over 100 µM each time.
As for `c1ccc(N/N=C2\CC(c3ccccc3)Oc3ccccc32)cc1` (stereo not given), the TGI in experiment [1], in experiment [2], in experiment [3], in experiment [4], in experiment [5] and in experiment [6] was over 100 µM each time. Also, the TGI in experiment [7] is over 100 µM; in [8], over 100 µM; in [9], over 100 µM; in [10], 75.2 µM; in experiment [11] it was over 100 µM; in experiment [12] it was over 100 µM. The TGI in [13], in experiment [14], in [15], in experiment [16] and in experiment [17] was over 100 µM each time.
Turning to `CCCSc1cc(Cl)c(C)cc1S(=O)(=O)n1cc[nH]c1=O`, the TGI in experiment [1], in [2], in experiment [3], in [4], in experiment [5] and in experiment [6] was over 100 µM in each case. The TGI in [7], in [8], in experiment [9], in experiment [10], in [11] and in [12] was over 100 µM each time. In addition, the TGI in experiment [13], in experiment [14], in [15], in [16] and in experiment [17] was over 100 µM throughout.
For `O=C(O)CN1CCNCCN(CC(=O)O)CC1`, the TGI in [1] is 39.5 µM; in [2], over 100 µM; in [3], over 100 µM; in [4] it was over 100 µM; in [5], over 42.9 µM; in experiment [6] it was over 100 µM. For the same compound, the TGI in experiment [7] was 11.6 µM; in experiment [8], over 29.4 µM; in experiment [9], over 68.7 µM; in experiment [10] it was over 100 µM; in experiment [11], over 100 µM; in [12], over 100 µM. Also, the TGI was 98.4 µM in experiment [13]; over 100 µM in experiment [14]; 6.12 µM in experiment [15]; over 100 µM in experiment [16]; over 100 µM in experiment [17].
For the compound `C[C@]12CC[C@@H]3c4ccc(OC(=O)c5ccccc5)cc4CC[C@H]3[C@@H]1CCC2OC(=O)c1cccc2c(=O)c3ccccc3[nH]c12` (stereo not given in full), the TGI in [1] was 57.9 µM; in [2], 29.8 µM; in experiment [3], 15.4 µM; in experiment [4] it was over 100 µM; in experiment [5], 39.6 µM; in experiment [6], 50.2 µM. Also, the TGI was 35.7 µM in experiment [7]; over 100 µM in experiment [8]; 64 µM in experiment [9]; 55.8 µM in experiment [10]; 30.2 µM in experiment [11]; 44.9 µM in experiment [12]. The TGI is 74.2 µM in experiment [13]; over 100 µM in [14]; 33.1 µM in experiment [15]; 38.5 µM in [16]; 31.3 µM in experiment [17].
As for `C1COC2SC3=C(SC(=C4SC5=C(SCCS5)S4)S3)SC2O1` (stereo not given), the TGI in experiment [1], in experiment [2], in experiment [3], in experiment [4], in experiment [5] and in [6] was over 100 µM throughout. In addition, the TGI is over 100 µM in experiment [7]; 78.3 µM in [8]; over 100 µM in experiment [9]; over 100 µM in experiment [10]; over 100 µM in experiment [11]; over 100 µM in [12]. The TGI in experiment [13], in [14], in experiment [15], in experiment [16] and in experiment [17] was over 100 µM throughout.
`O=S(=O)(O)c1cc(S(=O)(=O)O)c2c(N=Nc3cccc4ccccc34)c(O)ccc2c1`: the TGI in experiment [1], in experiment [2], in [3], in experiment [4], in experiment [5] and in [6] was over 100 µM throughout. Further, the TGI in experiment [7], in experiment [8], in experiment [9], in experiment [10], in [11] and in [12] was over 100 µM each time. Moreover, the TGI in experiment [13], in [14], in experiment [15], in experiment [16] and in [17] was over 100 µM in each case.
As to `COc1cccc2c1C(=O)C(=O)c1c-2oc(=O)c2cc(C)cc(OC)c12`, the TGI in experiment [1] is 35.6 µM; in experiment [2], over 75 µM; in experiment [3], 26.1 µM; in experiment [4], over 75 µM; in [5] it was over 75 µM; in experiment [6], 32.4 µM. Moreover, the TGI in experiment [7] was 30.6 µM; in experiment [8] it was over 75 µM; in experiment [9], over 75 µM; in [10], 55.7 µM; in experiment [11] it was 72.5 µM; in experiment [12], 41.8 µM. Also, the TGI was over 75 µM in [13]; 74.3 µM in experiment [14]; over 75 µM in [15]; 55.1 µM in [16]; over 75 µM in experiment [17].
Regarding `COC1Cc2c(C)c(OC(C)=O)c3cccnc3c2O1` (stereo not given), the TGI in experiment [1] is 29.2 µM; in experiment [2], over 100 µM; in [3], 32.6 µM; in experiment [4], 86 µM; in experiment [5], over 100 µM; in experiment [6] it was 90.9 µM. Further, the TGI in experiment [7] was 44.7 µM; in [8], 61.2 µM; in experiment [9], over 100 µM; in experiment [10], 31.7 µM; in experiment [11] it was 39.7 µM; in experiment [12], 34 µM. Also, the TGI in [13] was over 100 µM; in experiment [14], 43.1 µM; in [15], over 100 µM; in [16] it was over 100 µM; in experiment [17], 29 µM.
Consider `CC12CN(CC[N+](C)(C)C)CC1(C)C1CCC2O1` (stereo not given), for which the TGI in [1], in [2], in experiment [3], in experiment [4], in experiment [5] and in experiment [6] was over 100 µM throughout. Besides, the TGI in experiment [7], in [8], in [9], in experiment [10], in experiment [11] and in [12] was over 100 µM each time. The TGI in experiment [13], in experiment [14], in experiment [15], in [16] and in experiment [17] was over 100 µM throughout.
Consider `CC(=O)C1(c2ccccc2)CCN(Cn2sc3nc(C)cc(C)c3c2=O)CC1`, for which the TGI was over 100 µM in experiment [1]; over 100 µM in experiment [2]; 59.8 µM in experiment [3]; over 100 µM in experiment [4]; over 100 µM in [5]; over 100 µM in experiment [6]. Besides, the TGI in [7] was 74.6 µM; in experiment [8], over 100 µM; in experiment [9], over 100 µM; in experiment [10], 57.3 µM; in [11] it was over 100 µM; in experiment [12], over 100 µM. Besides, the TGI was over 100 µM in experiment [13]; 77.3 µM in experiment [14]; 33.8 µM in experiment [15]; over 100 µM in [16]; over 100 µM in experiment [17].
`NCC(=O)C(O)C(O)C(O)CO` (stereo not given): the TGI in experiment [1], in experiment [2], in [3], in experiment [4], in experiment [5] and in [6] was over 100 µM throughout. Also, the TGI in experiment [7], in [8], in experiment [9], in [10], in experiment [11] and in [12] was over 100 µM in each case. The TGI in [13], in experiment [14], in experiment [15], in [16] and in experiment [17] was over 100 µM each time.
For the compound `COC(=O)C1([C@@H]2C[C@@H](O)[C@]3(C)CC/C=C(\C)CCC[C@H](C)[C@H](O)[C@@H]2O3)CC1`, the TGI in [1] is over 100 µM; in [2], over 100 µM; in experiment [3], over 100 µM; in [4] it was over 100 µM; in [5] it was 69.2 µM; in [6] it was over 100 µM. Also, the TGI in experiment [7] is over 100 µM; in [8], 95.3 µM; in [9] it was over 100 µM; in experiment [10], 17.8 µM; in experiment [11], over 100 µM; in experiment [12] it was over 100 µM. In addition, the TGI in experiment [13] is over 100 µM; in experiment [14], 88.8 µM; in experiment [15], over 100 µM; in experiment [16], over 100 µM; in [17], over 100 µM.
Regarding `c1ccc(COCC23CCN(Cc4ccccc4)C(CC(OCc4ccccc4)C2)S3)cc1` (stereo not given), the TGI in experiment [1] is 32.3 µM; in experiment [2], over 100 µM; in [3], over 100 µM; in experiment [4], over 100 µM; in [5], over 100 µM; in experiment [6] it was over 100 µM. Further, the TGI in experiment [7] is over 100 µM; in experiment [8], 63.7 µM; in [9], over 100 µM; in experiment [10], over 100 µM; in experiment [11] it was 59.9 µM; in [12] it was over 100 µM. Further, the TGI in experiment [13] was over 100 µM; in experiment [14] it was 69.9 µM; in experiment [15] it was over 100 µM; in experiment [16], over 100 µM; in [17], over 100 µM.
`CCOC(=O)c1ccc2c(c1)nc1n2C(c2c(F)cccc2F)SC1` (stereo not given): the TGI in [1] is 26.1 µM; in experiment [2], 71.2 µM; in experiment [3], over 100 µM; in experiment [4] it was over 100 µM; in experiment [5], 34.6 µM; in experiment [6] it was over 100 µM. For the same compound, the TGI in experiment [7] is 58.7 µM; in experiment [8] it was over 100 µM; in [9], over 100 µM; in experiment [10], over 100 µM; in experiment [11], 74.6 µM; in [12], over 100 µM. Moreover, the TGI was over 100 µM in [13]; over 100 µM in experiment [14]; 28.5 µM in experiment [15]; over 100 µM in experiment [16]; over 100 µM in experiment [17].
Regarding `C=C(Cl)C(C)(Cl)CCC(Cl)C(C)(C)Cl` (stereo not given), the TGI in [1], in [2], in experiment [3], in [4], in experiment [5] and in [6] was over 100 µM in each case. Also, the TGI in experiment [8] was 61.3 µM; in experiment [9], over 100 µM; in [10] it was over 100 µM; in experiment [11], over 100 µM; in experiment [12], over 100 µM; in experiment [13], over 100 µM. The values for the TGI in experiment [14], in experiment [15] and in [16] were 66.1 µM, over 100 µM and over 100 µM, respectively.
